Measured values: patent US10457654B2 (GENENTECH, INC., priority 2017, dated 2019)
Counter-ions that a name gives are not always drawn.

Target: hNav1.7 (Homo sapiens (Human), UniProt Q15858)
Assay: Tritiated compound binding to membranes from cells expressing hNav1.7 and the β1 subunit, competitive binding (LBA, Ex. 243A)
Conditions: 100 pM [3H]compound, 18 h, room temperature; read-out: Nav1.7 (LBA) (Ex. 243A)
Description: Tritiated Compound Binding to Membranes Isolated from Cells that Heterologously Express hNav1.7 and the β1 Subunit
Preparation of membranes containing recombinantly expressed sodium channels: Frozen recombinant cell pellets were thawed on ice and diluted to 4 times the cell pellet weight with ice cold 50 mM Tris HCl, pH 7.4 buffer. The cell suspensions were homogenized on ice using a motorized glass dounce homogeniser. Homogenates were further diluted 8.4 times with ice cold 50 mM Tris HCl, pH 7.4 buffer and then centrifuged at 200×g at 4° C. for 15 min. The supernatants were collected and centrifuged at 10000×g at 4° C. for 50 min. […] The homogenized membranes were then processed through a syringe equipped with a 26 gauge needle. Protein concentrations were determined by Bradford Assay and the membranes were stored at −80° C.
Radioligand Binding Studies: Saturation experiments. A competitive NaV1.7 inhibitor having a methyl group was tritiated. Three tritiums were incorporated in place of methyl hydrogens to generate [^3H]compound. Binding of this radioligand was performed in 5 mL borosilicate glass test tubes at room temperature. […] Non-specific binding was determined in the presence of 1 μM unlabeled compound. After 18h, the reactants were filtered through GF/C glass fiber filters presoaked in 0.5% w/v polyethylene imine. […] [^3H]compound bound to filters was quantified by liquid scintillation counting.
Competitive binding experiments: Binding reactions were performed in 96-well polypropylene plates at room temperature for 18h. In 360 μL, membranes were incubated with 100 pM [^3H]compound and increasing concentrations of Test Compound. Non-specific binding was defined in the presence of 1 μM unlabeled compound. Reactions were transferred and filtered through 96-well glass fiber/C filter plates presoaked with 0.5% polyethylene imine. The filtered reactions were washed 5 times with 200 μL ice cold buffer containing 0.25% BSA. Bound radioactivity was determined by liquid scintillation counting.
Data Analysis: For saturation experiments, non-specific binding was subtracted from total binding to provide specific binding and these values were recalculated in terms of pmol ligand bound per mg protein. Saturation curves were constructed and dissociation constants were calculated using the single site ligand binding model: Beq=(Bmax*X)/(X+Kd), where Beq is the amount of ligand bound at equilibrium, Bmax is the maximum receptor density, Kd is the dissociation constant for the ligand, and X is the free ligand concentration. For competition studies percent inhibition was determined and IC50 values were calculated using a 4 parameter logistic model (% inhibition=(A+((B−A)/(1+((x/C)^D)))) using XLfit, where A and B are the maximal and minimum inhibition respectively, C is the IC50 concentration and D is the (Hill) slope.

Chain of hNav1.7 (Q15858 whole entry, looked up): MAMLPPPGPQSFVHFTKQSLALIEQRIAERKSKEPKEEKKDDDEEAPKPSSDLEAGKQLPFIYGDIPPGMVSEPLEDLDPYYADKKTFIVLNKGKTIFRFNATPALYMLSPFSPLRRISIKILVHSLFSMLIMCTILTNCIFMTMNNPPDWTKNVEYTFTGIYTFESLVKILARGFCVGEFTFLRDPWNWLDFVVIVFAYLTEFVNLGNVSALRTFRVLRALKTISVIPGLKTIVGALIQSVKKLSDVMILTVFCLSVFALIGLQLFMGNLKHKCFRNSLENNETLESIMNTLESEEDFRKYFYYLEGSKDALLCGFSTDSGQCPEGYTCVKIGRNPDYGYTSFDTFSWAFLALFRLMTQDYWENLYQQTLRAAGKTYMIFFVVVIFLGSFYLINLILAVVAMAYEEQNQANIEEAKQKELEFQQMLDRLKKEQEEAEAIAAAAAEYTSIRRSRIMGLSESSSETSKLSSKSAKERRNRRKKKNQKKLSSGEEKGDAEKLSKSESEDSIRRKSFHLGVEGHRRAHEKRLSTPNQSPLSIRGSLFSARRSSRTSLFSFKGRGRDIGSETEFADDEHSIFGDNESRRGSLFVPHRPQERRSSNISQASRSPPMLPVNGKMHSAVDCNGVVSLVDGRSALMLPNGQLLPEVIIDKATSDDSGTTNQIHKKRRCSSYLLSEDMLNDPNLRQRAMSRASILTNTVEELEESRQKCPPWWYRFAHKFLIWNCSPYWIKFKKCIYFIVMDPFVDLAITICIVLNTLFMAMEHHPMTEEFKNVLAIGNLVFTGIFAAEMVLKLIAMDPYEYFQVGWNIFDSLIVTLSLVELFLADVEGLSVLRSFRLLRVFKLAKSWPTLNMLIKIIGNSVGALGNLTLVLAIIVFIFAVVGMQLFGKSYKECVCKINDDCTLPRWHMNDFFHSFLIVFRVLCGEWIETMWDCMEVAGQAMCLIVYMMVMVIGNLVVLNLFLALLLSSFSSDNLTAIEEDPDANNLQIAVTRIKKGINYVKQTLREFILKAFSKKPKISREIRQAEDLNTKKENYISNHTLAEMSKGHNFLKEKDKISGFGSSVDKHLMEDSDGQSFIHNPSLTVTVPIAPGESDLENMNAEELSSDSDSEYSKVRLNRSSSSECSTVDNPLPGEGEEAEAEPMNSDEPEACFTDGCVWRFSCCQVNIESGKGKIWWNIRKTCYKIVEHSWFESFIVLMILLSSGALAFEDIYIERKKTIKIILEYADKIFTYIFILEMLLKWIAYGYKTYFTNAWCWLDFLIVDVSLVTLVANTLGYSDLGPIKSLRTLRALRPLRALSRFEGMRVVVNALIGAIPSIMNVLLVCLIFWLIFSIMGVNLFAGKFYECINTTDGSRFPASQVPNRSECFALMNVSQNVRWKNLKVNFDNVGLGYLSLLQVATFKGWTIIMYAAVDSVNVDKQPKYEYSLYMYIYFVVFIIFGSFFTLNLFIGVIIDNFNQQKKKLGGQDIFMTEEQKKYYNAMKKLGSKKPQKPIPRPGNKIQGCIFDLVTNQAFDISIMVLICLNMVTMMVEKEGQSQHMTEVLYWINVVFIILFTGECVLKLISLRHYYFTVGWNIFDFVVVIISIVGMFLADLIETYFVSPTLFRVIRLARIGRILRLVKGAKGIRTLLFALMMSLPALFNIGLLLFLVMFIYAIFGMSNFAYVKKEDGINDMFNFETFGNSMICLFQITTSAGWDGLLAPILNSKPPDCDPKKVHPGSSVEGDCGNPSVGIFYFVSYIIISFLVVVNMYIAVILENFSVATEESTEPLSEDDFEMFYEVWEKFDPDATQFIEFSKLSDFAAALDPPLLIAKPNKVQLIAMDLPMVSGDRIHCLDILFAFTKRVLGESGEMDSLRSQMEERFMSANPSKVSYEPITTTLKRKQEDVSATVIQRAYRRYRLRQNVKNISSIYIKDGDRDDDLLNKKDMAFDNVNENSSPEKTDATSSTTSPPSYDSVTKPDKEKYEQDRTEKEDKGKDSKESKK
Chain of hNav1.7 (Q07699 whole entry partner, looked up): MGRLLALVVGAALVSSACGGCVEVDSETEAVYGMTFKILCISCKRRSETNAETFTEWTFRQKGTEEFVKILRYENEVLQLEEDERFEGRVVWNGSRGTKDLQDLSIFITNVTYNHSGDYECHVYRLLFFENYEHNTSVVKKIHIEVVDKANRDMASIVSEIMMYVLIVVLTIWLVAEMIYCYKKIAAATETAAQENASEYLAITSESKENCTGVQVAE

IC50 [nM] | SMILES
211 | CN[C@H]1CCCC[C@@H]1N(C)c1cc(F)c(S(=O)(=O)Nc2nccs2)cc1Cl [Example 20, 5-chloro-2-fluoro-4-(methyl((1S,2S)-2-(methylamino)cyclohexyl)amino)-N-(thiazol-2-yl)benzenesulfonamide]
214 | O=S(=O)(Nc1nccs1)c1cc(Cl)c(N[C@H]2CCCC[C@@H]2N2CCC2)cc1F [Example 21, 4-(((1S,2S)-2-(azetidin-1-yl)cyclohexyl)amino)-5-chloro-2-fluoro-N-(thiazol-2-yl)benzenesulfonamide]
8.4 | CN(C)[C@H]1CC(C(F)(F)F)=CC[C@@H]1Nc1cc(F)c(S(=O)(=O)Nc2nccs2)cc1Cl [Example 23]
49.9 | CN(C)[C@H]1CCCC[C@@H]1Oc1cc(F)c(S(=O)(=O)Nc2nccs2)cc1C1CC1 [Example 24, 5-cyclopropyl-4-[(1S,2S)-2-(dimethylamino)cyclohexoxy]-2-fluoro-N-thiazol-2-yl-benzenesulfonamide]
7420 | CN(C)[C@@H]1CCCC[C@H]1Oc1cc(F)c(S(=O)(=O)Nc2nccs2)cc1C1CC1 [Example 25, 5-cyclopropyl-4-[(1R,2R)-2-(dimethylamino)cyclohexoxy]-2-fluoro-N-thiazol-2-yl-benzenesulfonamide]
41.5 | CN(C)[C@H]1CCCC[C@@H]1Nc1cc(F)c(S(=O)(=O)Nc2ncc(Cl)s2)cc1Cl [Example 26, 5-chloro-N-(5-chlorothiazol-2-yl)-4-(((1 S,2S)-2-(dimethylamino)cyclohexyl)amino)-2-fluorobenzenesulfonamide]
149 | Cc1csc(NS(=O)(=O)c2cc(Cl)c(N[C@H]3CCCC[C@@H]3N(C)C)cc2F)n1 [Example 27, 5-chloro-4-(((1 S,2S)-2-(dimethylamino)cyclohexyl)amino)-2-fluoro-N-(4-methylthiazol-2-yl)benzenesulfonamide formate]

Same assay, conditions: 100 pM [3H]compound, 18 h, room temperature; read-out: Nav1.7 LBA (Ex. 243A) IC50

IC50 [nM] | SMILES
199 | CN(C)[C@H]1CCCC[C@@H]1Nc1ccc(S(=O)(=O)Nc2nccs2)cc1[N+](=O)[O-] [Example 28, 4-(((1S,2S)-2-(dimethylamino)cyclohexyl)amino)-3-nitro-N-(thiazol-2-yl)benzenesulfonamide]
60.1 | CCCN(C)[C@H]1CCCC[C@@H]1Nc1cc(F)c(S(=O)(=O)Nc2nccs2)cc1Cl [Example 29, 5-chloro-2-fluoro-4-(((1S,2S)-2-(methyl(propyl)amino)cyclohexyl)amino)-N-(thiazol-2-yl)benzenesulfonamide]
82.4 | CC(C)N(C)[C@H]1CCCC[C@@H]1Nc1cc(F)c(S(=O)(=O)Nc2nccs2)cc1Cl [Example 33, 5-chloro-2-fluoro-4-(((1S,2S)-2-(isopropyl(methyl)amino)cyclohexyl)amino)-N-(thiazol-2-yl)benzenesulfonamide]
35.2 | CCCN[C@H]1CCCC[C@@H]1Nc1cc(F)c(S(=O)(=O)Nc2nccs2)cc1Cl [Example 34, 5-chloro-2-fluoro-4-(((1 S,2S)-2-(propylamino)cyclohexyl)amino)-N-(thiazol-2-yl)benzenesulfonamide]
93.6 | CN(C)[C@@H]1C[C@H](C(F)(F)F)CC[C@H]1Nc1cc(F)c(S(=O)(=O)Nc2nccs2)cc1Cl [Example 36, 5-chloro-4-(((1R,2R,4R)-2-(dimethylamino)-4-(trifluoromethyl)cyclohexyl)amino)-2-fluoro-N-(thiazol-2-yl)benzenesulfonamide]
880 | Cc1cnc(NS(=O)(=O)c2cc(Cl)c(N[C@H]3CCCC[C@@H]3N(C)C)cc2F)s1 [Example 40, 5-chloro-4-(((1S,2S)-2-(dimethylamino)cyclohexyl)amino)-2-fluoro-N-(5-methylthiazol-2-yl)benzenesulfonamide formate]
27.2 | CCN[C@H]1CCCC[C@@H]1Oc1cc(F)c(S(=O)(=O)Nc2nccs2)cc1Cl [Example 42, 5-chloro-4-(((1S,2S)-2-(ethylamino)cyclohexyl)oxy)-2-fluoro-N-(thiazol-2-yl)benzenesulfonamide]
1130 | CCN[C@@H]1CCCC[C@H]1Oc1cc(F)c(S(=O)(=O)Nc2nccs2)cc1Cl [Example 43, 5-chloro-4-(((1R,2R)-2-(ethylamino)cyclohexyl)oxy)-2-fluoro-N-(thiazol-2-yl)benzenesulfonamide]
74.4 | CC1CCCN1[C@H]1CCCC[C@@H]1Nc1cc(F)c(S(=O)(=O)Nc2nccs2)cc1Cl (stereo partly drawn) [Example 44, 5-chloro-2-fluoro-4-(((1 S,2S)-2-(2-methylpyrrolidin-1-yl)cyclohexyl)amino)-N-(thiazol-2-yl)benzenesulfonamide]
12.7 | CC(O)CN(C)[C@H]1CCCC[C@@H]1Nc1cc(F)c(S(=O)(=O)Nc2nccs2)cc1Cl (stereo partly drawn) [Example 45, 5-chloro-2-fluoro-4-(((1 S,2S)-2-((2-hydroxypropyl)(methyl)amino)cyclohexyl)amino)-N-(thiazol-2-yl)benzenesulfonamide]
770 | CN(C)[C@H]1CCCC[C@@H]1Nc1cc(F)c(S(=O)(=O)Nc2cscn2)cc1Cl [Example 46, 5-chloro-4-(((1S,2S)-2-(dimethylamino)cyclohexyl)amino)-2-fluoro-N-(thiazol-4-yl)benzenesulfonamide]
529 | O=S(=O)(Nc1nccs1)c1cc(Cl)c(N[C@H]2CCCC[C@@H]2N2CC(O)C2)cc1F [Example 47, 5-chloro-2-fluoro-4-(((1 S,2S)-2-(3-hydroxyazetidin-1-yl)cyclohexyl)amino)-N-(thiazol-2-yl)benzenesulfonamide]
127 | CN(C)[C@@H]1CC=C(C(F)(F)F)C[C@H]1Nc1cc(F)c(S(=O)(=O)Nc2nccs2)cc1Cl [Example 48, 5-chloro-4-(((1R,6R)-6-(dimethylamino)-3-(trifluoromethyl)cyclohex-3-en-1-yl)amino)-2-fluoro-N-(thiazol-2-yl)benzenesulfonamide formate]
42.1 | CN(C)[C@H]1CCCC[C@@H]1Nc1cc(F)c(S(=O)(=O)Nc2ncc(F)s2)cc1Cl [Example 49, 5-chloro-4-(((1S,2S)-2-(dimethylamino)cyclohexyl)amino)-2-fluoro-N-(5-fluorothiazol-2-yl)benzenesulfonamide]
58.4 | CN[C@H]1CCCC[C@@H]1Nc1cc(F)c(S(=O)(=O)Nc2nccs2)cc1Br [Example 50, 5-bromo-2-fluoro-4-(((1S,2S)-2-(methylamino)cyclohexyl)amino)-N-(thiazol-2-yl)benzenesulfonamide formate]
75.6 | CN[C@H]1CCCC[C@@H]1Nc1cc(F)c(S(=O)(=O)Nc2nccs2)cc1C1CC1 [Example 51, 5-cyclopropyl-2-fluoro-4-(((1S,2S)-2-(methylamino)cyclohexyl)amino)-N-(thiazol-2-yl)benzenesulfonamide formate]
8.48 | CCN[C@H]1CCCC[C@@H]1Nc1cc(F)c(S(=O)(=O)Nc2nccs2)cc1Br [Example 52, 5-bromo-4-(((1S,2S)-2-(ethylamino)cyclohexyl)amino)-2-fluoro-N-(thiazol-2-yl)benzenesulfonamide formate]
97.9 | CN(C)[C@H]1CCCC[C@@H]1N1CCOc2cc(S(=O)(=O)Nc3nccs3)ccc21 [Example 54, 4-((1 S,2S)-2-(dimethylamino)cyclohexyl)-N-(thiazol-2-yl)-3,4-dihydro-2H-benzo[b][1,4]oxazine-7-sulfonamide]
7.38 | CN(C1CNC1)[C@H]1CCCC[C@@H]1Nc1cc(F)c(S(=O)(=O)Nc2cccc(F)n2)cc1Cl [Example 55, 4-(((1S,2S)-2-(azetidin-3-yl(methyl)amino)cyclohexyl)amino)-5-chloro-2-fluoro-N-(6-fluoropyridin-2-yl)benzenesulfonamide]
3.46 | CN(CCO)[C@H]1CCCC[C@@H]1Nc1cc(F)c(S(=O)(=O)Nc2nccs2)cc1C1CC1 [Example 56, 5-cyclopropyl-2-fluoro-4-(((1S,2S)-2-((2-hydroxyethyl)(methyl)amino)cyclohexyl)amino)-N-(thiazol-2-yl)benzenesulfonamide hydrochloride]

SMILES | IC50 [nM]
CN(CC1CC1)[C@H]1CCCC[C@@H]1Nc1cc(F)c(S(=O)(=O)Nc2nccs2)cc1Cl [Example 31, 5-chloro-4-(((1S,2S)-2-((cyclopropylmethyl)(methyl)amino)cyclohexyl)amino)-2-fluoro-N-(thiazol-2-yl)benzenesulfonamide] | 163
CN(CCF)[C@H]1CCCC[C@@H]1Nc1cc(F)c(S(=O)(=O)Nc2nccs2)cc1Cl [Example 37, 5-chloro-2-fluoro-4-(((1S,2S)-2-((2-fluoroethyl)(methyl)amino)cyclohexyl)amino)-N-(thiazol-2-yl)benzenesulfonamide formate] | 2.76
